Test results as given in patent publication US12304890B2, “R-type pyridyloxycarboxylic acid, salt and ester derivative thereof, and preparation method therefor, and herbicidal composition and application thereof” (Qingdao Kingagroot Chemical Compound Co., Ltd., priority 2018, dated 2025).

Key:
Assay type in all cases: in vivo
[1] = test system: Monocotyledonous and dicotyledonous weed seeds and main crop seeds; test: Post-emergence test experiment, other weeds and crops (Table 4, 1000 g a.i./ha); conditions: 3 weeks in greenhouse, fresh weight inhibition
How it was run: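 Weed and crop seeds (wheat, corn, rice, soybean, cotton, oilseed, millet, sorghum) sown in soil pots in a greenhouse and sprayed at 2-3 leaf stage, 2 weeks after sowing. Compound in acetone/tween-80 with methyl oleate concentrate (1.5 L/ha) as synergist. Effect recorded as fresh-weight growth inhibition rate.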

Digitaria sanguinalis = test: Post-emergence test experiment, Digitaria sanguinalis; conditions: 1000 g a.i./ha, 3 weeks in greenhouse, fresh weight inhibition
How it was run: (§1)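 Weed and crop seeds were sown in soil-filled pots, covered with 0.5-2 cm soil and grown in a greenhouse. Plants were sprayed at the 2-3 leaf stage, 2 weeks after sowing. Compounds were in acetone with tween-80 plus methyl oleate emulsible concentrate synergist (1.5 liters per hectare). Fresh weight inhibition was scored after 3 weeks.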

Echinochloa crusgalli = test: Post-emergence test experiment, Echinochloa crusgalli; conditions: 1000 g a.i./ha, 3 weeks in greenhouse, fresh weight inhibition
How it was run: as §1

| SMILES | Activity level (growth inhibition rate), Abutilon theophrasti Medic. [1] | Activity level (growth inhibition rate), Galium aparine [1] | Activity level (growth inhibition rate), Monochoria Vaginalis [1] | Activity level (growth inhibition rate), Digitaria sanguinalis (Digitaria sanguinalis) | Activity level (growth inhibition rate), Echinochloa crusgalli (Echinochloa crusgalli) |
| --- | --- | --- | --- | --- | --- |
| CCCCC(CC)CSC(=O)[C@@H](C)Oc1nc(F)c(Cl)c(N)c1Cl (some centres unmarked) [Compound 2-158] | 5 (Level 5: the growth inhibition rate is greater than 85%) | 5 (Level 5: the growth inhibition rate is greater than 85%) | 5 (Level 5: the growth inhibition rate is greater than 85%) | 5 (Level 5: the growth inhibition rate is greater than 85%) | 5 (Level 5: the growth inhibition rate is greater than 85%) |
| CC(C)CCCCCOC(=O)[C@@H](C)Oc1nc(F)c(Cl)c(N)c1Cl [Compound 2-159] | 5 (Level 5: the growth inhibition rate is greater than 85%) | 5 (Level 5: the growth inhibition rate is greater than 85%) | 5 (Level 5: the growth inhibition rate is greater than 85%) | 5 (Level 5: the growth inhibition rate is greater than 85%) | 5 (Level 5: the growth inhibition rate is greater than 85%) |
| CC(C)CCCCCSC(=O)[C@@H](C)Oc1nc(F)c(Cl)c(N)c1Cl [Compound 2-160] | 5 (Level 5: the growth inhibition rate is greater than 85%) | 5 (Level 5: the growth inhibition rate is greater than 85%) | 5 (Level 5: the growth inhibition rate is greater than 85%) | 5 (Level 5: the growth inhibition rate is greater than 85%) | 5 (Level 5: the growth inhibition rate is greater than 85%) |
| CCCCCCC(C)OC(=O)[C@@H](C)Oc1nc(F)c(Cl)c(N)c1Cl (some centres unmarked) [Compound 2-163] | 5 (Level 5: the growth inhibition rate is greater than 85%) | 5 (Level 5: the growth inhibition rate is greater than 85%) | 5 (Level 5: the growth inhibition rate is greater than 85%) | 5 (Level 5: the growth inhibition rate is greater than 85%) | 5 (Level 5: the growth inhibition rate is greater than 85%) |
| CCCCCCC(C)SC(=O)[C@@H](C)Oc1nc(F)c(Cl)c(N)c1Cl (some centres unmarked) [Compound 2-164] | 5 (Level 5: the growth inhibition rate is greater than 85%) | 5 (Level 5: the growth inhibition rate is greater than 85%) | 5 (Level 5: the growth inhibition rate is greater than 85%) | 5 (Level 5: the growth inhibition rate is greater than 85%) | 5 (Level 5: the growth inhibition rate is greater than 85%) |
| CCCCCCCCCOC(=O)[C@@H](C)Oc1nc(F)c(Cl)c(N)c1Cl [Compound 2-175] | 5 (Level 5: the growth inhibition rate is greater than 85%) | 5 (Level 5: the growth inhibition rate is greater than 85%) | 5 (Level 5: the growth inhibition rate is greater than 85%) | 5 (Level 5: the growth inhibition rate is greater than 85%) | 5 (Level 5: the growth inhibition rate is greater than 85%) |
| CCCCCCCCCSC(=O)[C@@H](C)Oc1nc(F)c(Cl)c(N)c1Cl [Compound 2-176] | 5 (Level 5: the growth inhibition rate is greater than 85%) | 5 (Level 5: the growth inhibition rate is greater than 85%) | 5 (Level 5: the growth inhibition rate is greater than 85%) | 5 (Level 5: the growth inhibition rate is greater than 85%) | 5 (Level 5: the growth inhibition rate is greater than 85%) |
| CCCCCCCCCCSC(=O)[C@@H](C)Oc1nc(F)c(Cl)c(N)c1Cl [Compound 2-196] | 5 (Level 5: the growth inhibition rate is greater than 85%) | 5 (Level 5: the growth inhibition rate is greater than 85%) | 5 (Level 5: the growth inhibition rate is greater than 85%) | 5 (Level 5: the growth inhibition rate is greater than 85%) | 5 (Level 5: the growth inhibition rate is greater than 85%) |
| CCCCCCCCCCCSC(=O)[C@@H](C)Oc1nc(F)c(Cl)c(N)c1Cl [Compound 2-216] | 5 (Level 5: the growth inhibition rate is greater than 85%) | 5 (Level 5: the growth inhibition rate is greater than 85%) | 5 (Level 5: the growth inhibition rate is greater than 85%) | 5 (Level 5: the growth inhibition rate is greater than 85%) | 5 (Level 5: the growth inhibition rate is greater than 85%) |
| CCCCCCCCCCCCSC(=O)[C@@H](C)Oc1nc(F)c(Cl)c(N)c1Cl [Compound 2-236] | 5 (Level 5: the growth inhibition rate is greater than 85%) | 5 (Level 5: the growth inhibition rate is greater than 85%) | 5 (Level 5: the growth inhibition rate is greater than 85%) | 5 (Level 5: the growth inhibition rate is greater than 85%) | 5 (Level 5: the growth inhibition rate is greater than 85%) |
| CC(Oc1nc(F)c(Cl)c(N)c1Cl)C(=O)OC1CC1 (centres unmarked) [Compound 2-263] | 5 (Level 5: the growth inhibition rate is greater than 85%) | 5 (Level 5: the growth inhibition rate is greater than 85%) | 5 (Level 5: the growth inhibition rate is greater than 85%) | 5 (Level 5: the growth inhibition rate is greater than 85%) | 5 (Level 5: the growth inhibition rate is greater than 85%) |
| CC(Oc1nc(F)c(Cl)c(N)c1Cl)C(=O)OC1CCC1 (centres unmarked) [Compound 2-264] | 5 (Level 5: the growth inhibition rate is greater than 85%) | 5 (Level 5: the growth inhibition rate is greater than 85%) | 5 (Level 5: the growth inhibition rate is greater than 85%) | 5 (Level 5: the growth inhibition rate is greater than 85%) | 5 (Level 5: the growth inhibition rate is greater than 85%) |
| CC(Oc1nc(F)c(Cl)c(N)c1Cl)C(=O)OC1CCCC1 (centres unmarked) [Compound 2-265] | 5 (Level 5: the growth inhibition rate is greater than 85%) | 5 (Level 5: the growth inhibition rate is greater than 85%) | 5 (Level 5: the growth inhibition rate is greater than 85%) | 5 (Level 5: the growth inhibition rate is greater than 85%) | 5 (Level 5: the growth inhibition rate is greater than 85%) |
| CC(Oc1nc(F)c(Cl)c(N)c1Cl)C(=O)SC1CCCCC1 (centres unmarked) [Compound 2-266] | 5 (Level 5: the growth inhibition rate is greater than 85%) | 5 (Level 5: the growth inhibition rate is greater than 85%) | 5 (Level 5: the growth inhibition rate is greater than 85%) | 5 (Level 5: the growth inhibition rate is greater than 85%) | 5 (Level 5: the growth inhibition rate is greater than 85%) |
| CC(Oc1nc(F)c(Cl)c(N)c1Cl)C(=O)OCC#N (centres unmarked) [Compound 2-267] | 5 (Level 5: the growth inhibition rate is greater than 85%) | 5 (Level 5: the growth inhibition rate is greater than 85%) | 5 (Level 5: the growth inhibition rate is greater than 85%) | 5 (Level 5: the growth inhibition rate is greater than 85%) | 5 (Level 5: the growth inhibition rate is greater than 85%) |
| CC(Oc1nc(F)c(Cl)c(N)c1Cl)C(=O)OC[N+](=O)[O-] (centres unmarked) [Compound 2-268] | 5 (Level 5: the growth inhibition rate is greater than 85%) | 5 (Level 5: the growth inhibition rate is greater than 85%) | 5 (Level 5: the growth inhibition rate is greater than 85%) | 5 (Level 5: the growth inhibition rate is greater than 85%) | 5 (Level 5: the growth inhibition rate is greater than 85%) |
